This is an account of results in article PMC7400788, “RAF dimer inhibition enhances the antitumor activity of MEK inhibitors in K‐RAS mutant tumors” (Molecular Oncology, 2020).

Experiment [1] addresses T1, WT B‐RAF (Homo sapiens, UniProt P15056).
T1 construct: gene BRAF; overexpressed in HEK293 cells, immunoprecipitated
The experiment can be described thus: TR-FRET kinase assay, MEK1 (K97R) substrate. It counts as biochemical. A general note: In TR-FRET formats the signal depends on donor and acceptor labels being close together.

The target in experiment [2] is T2, WT B‐RAF (Homo sapiens, UniProt P15056, V600E).
T2 construct: gene BRAF; overexpressed in HEK293 cells, immunoprecipitated
T2 sequence (P15056 2-766 V600E): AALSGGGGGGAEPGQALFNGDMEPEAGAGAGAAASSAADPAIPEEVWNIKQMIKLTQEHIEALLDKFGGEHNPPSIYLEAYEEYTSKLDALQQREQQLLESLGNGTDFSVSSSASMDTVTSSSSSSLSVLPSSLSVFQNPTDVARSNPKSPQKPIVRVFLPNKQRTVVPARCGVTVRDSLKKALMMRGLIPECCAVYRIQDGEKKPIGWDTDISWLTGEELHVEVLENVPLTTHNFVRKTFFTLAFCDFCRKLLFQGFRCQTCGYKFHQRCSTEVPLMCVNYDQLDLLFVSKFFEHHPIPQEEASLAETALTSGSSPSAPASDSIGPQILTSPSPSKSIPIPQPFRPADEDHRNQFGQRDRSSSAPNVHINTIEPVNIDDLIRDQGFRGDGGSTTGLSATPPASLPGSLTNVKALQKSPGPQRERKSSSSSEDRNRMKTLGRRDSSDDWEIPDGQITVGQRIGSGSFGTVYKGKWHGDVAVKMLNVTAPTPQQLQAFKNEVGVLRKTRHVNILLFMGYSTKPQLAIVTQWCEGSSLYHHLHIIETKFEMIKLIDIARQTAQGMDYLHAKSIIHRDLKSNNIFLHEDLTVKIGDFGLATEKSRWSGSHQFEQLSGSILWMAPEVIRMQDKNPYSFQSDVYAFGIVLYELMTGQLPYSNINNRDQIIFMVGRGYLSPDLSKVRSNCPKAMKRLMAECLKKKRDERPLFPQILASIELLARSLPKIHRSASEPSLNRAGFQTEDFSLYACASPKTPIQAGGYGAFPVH
The experiment can be described thus: TR-FRET kinase assay, MEK1 (K97R) substrate. In kind it is biochemical.

The target in the next experiment is T3, WT C‐RAF (Homo sapiens, UniProt P04049).
T3 construct: gene RAF1; overexpressed in HEK293 cells, immunoprecipitated
T3 sequence (P04049 whole entry): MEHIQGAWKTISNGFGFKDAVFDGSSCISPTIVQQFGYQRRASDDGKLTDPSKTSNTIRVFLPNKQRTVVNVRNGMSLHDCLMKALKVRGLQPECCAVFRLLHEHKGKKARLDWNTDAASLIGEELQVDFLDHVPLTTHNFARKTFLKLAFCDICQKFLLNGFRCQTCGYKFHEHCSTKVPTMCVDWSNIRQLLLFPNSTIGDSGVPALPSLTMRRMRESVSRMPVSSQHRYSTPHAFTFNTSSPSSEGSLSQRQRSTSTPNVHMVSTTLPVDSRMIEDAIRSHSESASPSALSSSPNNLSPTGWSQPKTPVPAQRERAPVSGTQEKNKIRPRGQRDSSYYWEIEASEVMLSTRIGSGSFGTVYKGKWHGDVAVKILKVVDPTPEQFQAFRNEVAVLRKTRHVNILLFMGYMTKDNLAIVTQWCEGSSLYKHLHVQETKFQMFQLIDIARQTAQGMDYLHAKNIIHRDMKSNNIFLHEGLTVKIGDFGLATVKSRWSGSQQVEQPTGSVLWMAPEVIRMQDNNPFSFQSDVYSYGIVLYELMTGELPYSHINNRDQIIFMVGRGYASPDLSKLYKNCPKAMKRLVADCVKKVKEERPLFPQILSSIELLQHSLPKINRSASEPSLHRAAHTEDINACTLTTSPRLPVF
Put plainly: TR-FRET kinase assay, MEK1 (K97R) substrate. It counts as biochemical.

The target in a further experiment is EGFR (Homo sapiens, UniProt P00533). Put plainly: biochemical kinase assay (details not told). The source says:
biochemical kinase assay (details not told) on EGFR | Biochemical activity of compound C against WT B‐RAF, B‐RAF^V600E, C‐RAF, and EGFR

Setting [3] is: read-out: BGB-283 IC50 (nM) / 1 h.
Setting [4] is: 1 mM ATP, 1 h pre-incubation, room temperature, time-dependent inhibition (6 h and 24 h pre-incubation also tested), read-out: Compound C IC50 (nM) / 1 h.

Like-named read-outs stand apart in the source and are kept apart here.

T1 sequence (P15056 2-766): as the sequence (P15056 2-766 V600E) above, with E599V counted along it
Chain of EGFR (P00533 25-1210): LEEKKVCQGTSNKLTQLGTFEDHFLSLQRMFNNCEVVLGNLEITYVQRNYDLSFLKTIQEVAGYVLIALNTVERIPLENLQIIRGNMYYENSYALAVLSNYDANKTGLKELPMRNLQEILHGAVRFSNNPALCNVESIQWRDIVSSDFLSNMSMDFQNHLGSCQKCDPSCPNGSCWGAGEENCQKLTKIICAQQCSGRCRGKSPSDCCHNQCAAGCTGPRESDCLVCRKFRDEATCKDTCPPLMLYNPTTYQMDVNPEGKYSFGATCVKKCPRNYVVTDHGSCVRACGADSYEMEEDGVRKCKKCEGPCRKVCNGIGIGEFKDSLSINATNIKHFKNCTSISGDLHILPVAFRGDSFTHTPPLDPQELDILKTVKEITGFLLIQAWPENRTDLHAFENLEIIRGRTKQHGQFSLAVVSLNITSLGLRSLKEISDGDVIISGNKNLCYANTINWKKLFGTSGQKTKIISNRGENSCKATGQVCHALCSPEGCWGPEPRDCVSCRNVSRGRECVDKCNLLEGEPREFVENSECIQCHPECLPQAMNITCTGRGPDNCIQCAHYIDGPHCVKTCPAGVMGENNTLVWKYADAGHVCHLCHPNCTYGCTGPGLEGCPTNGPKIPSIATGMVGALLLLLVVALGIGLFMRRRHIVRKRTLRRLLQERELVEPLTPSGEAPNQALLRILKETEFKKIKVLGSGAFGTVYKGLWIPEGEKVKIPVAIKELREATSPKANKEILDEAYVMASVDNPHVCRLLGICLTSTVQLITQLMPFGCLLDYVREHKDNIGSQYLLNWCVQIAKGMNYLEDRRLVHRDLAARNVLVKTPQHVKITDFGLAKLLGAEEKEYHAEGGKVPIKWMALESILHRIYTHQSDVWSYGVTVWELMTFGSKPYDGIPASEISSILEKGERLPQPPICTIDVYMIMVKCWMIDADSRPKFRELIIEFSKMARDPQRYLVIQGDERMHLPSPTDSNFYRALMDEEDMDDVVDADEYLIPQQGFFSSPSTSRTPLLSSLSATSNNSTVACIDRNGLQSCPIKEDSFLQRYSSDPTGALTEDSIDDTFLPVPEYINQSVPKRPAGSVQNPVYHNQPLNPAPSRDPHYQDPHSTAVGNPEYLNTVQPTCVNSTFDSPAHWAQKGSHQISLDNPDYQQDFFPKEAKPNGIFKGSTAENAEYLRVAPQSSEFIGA

As to `O=C1CCc2c(Oc3ccc4c(c3)[C@@H]3[C@H](O4)[C@H]3c3nc4ccc(C(F)(F)F)cc4[nH]3)ccnc2N1` [BGB‐283], the IC50 was 2310 nM at WT B‐RAF [1] (setting [3]), 49 nM on WT B‐RAF [2] (setting [3]) and 122 nM on WT C‐RAF (setting [3]).
Consider `c1cc(-c2cnn3cc(-c4ccc(OCCN5CCCCC5)cc4)cnc23)ccn1` [compound C], for which the IC50 on WT B‐RAF [1] (setting [4]) worked out at 24 nM; on WT B‐RAF [2] (setting [4]) it was 1.6 nM; at EGFR, 1.27 µM; on WT C‐RAF (setting [4]), 2.4 nM.
